This note sets out measurements from patent US20240384250A1, “FIBROBLAST GROWTH FACTOR 23 MODULATING COMPOUNDS” (THE UAB RESEARCH FOUNDATION, priority 2021, published 2024).

Entries after “also recorded” stand apart in the source; their conditions may differ.

In data set [1] the test system is BALB/c mice on 0.2% adenine diet. As to conditions: mouse, in vivo.
Excerpt: This diet-induced model of CKD, which develops kidney tubulointerstitial damage and cardiac hypertrophy, was constructed in accordance with previous studies.^74,75 Male and female mice were studied in separate groups on the basis of the gender-specific effect of adenine, with females taking much longer (16-20 weeks) to develop kidney injury.^76 Five-week-old BALB/c mice (The Jackson Laboratory) were put on the control diet for 1 week. After 1 week, male and female mice were each split into 4 groups, receiving control chow and saline injections, control chow and heparin injections, adenine chow and saline injections, or adenine chow and heparin injections. […]
Short-axis heart sections were stained with H&E (IDEXX Laboratories) and used for representative images. Pictures were taken with a Leica Dmi8 fluorescence microscope. The crosssectional area of individual cardiac myocytes in paraffin-embedded short-axis sections was measured. […] Immunofluorescence images were taken with a Leica Dmi8 fluorescence microscope with a 60× oil objective. ImageJ software (National Institutes of Health) was used to quantify the cross-sectional area of 25 cells per field in 4 fields along the mid-chamber free wall on the basis of WGA-positive staining.
In another data set the target is T1, FGF23 binding to FGFR4 (Homo sapiens, UniProt P22455+Q9GZV9).
T1 construct: Fc-coupled FGFR ectodomains were immobilized on protein A/G beads; purchased R&D Systems 2604FG025/CF or 2629FG025/CF; 685FR050
Kind of data set: Pull-down of FGF23 with Fc-FGFR on protein A/G beads with sKL, heparin or PBS. The settings on record: with heparin, or alone. As for the experimental part:
(§1) To study the interaction between Fc-tagged FGFR isoforms (Fc-FGFR), FGF isoforms, and sKL, immunoprecipitation studies were conducted. Protein A beads (6501, BioVision) and protein G beads (6511, BioVision) were used at 25 μl of a 50% stock slurry per sample in a total bead volume of 50 μl. Beads were washed 5× in activity buffer (50 mM Tris [pH 7.4], 200 mM NaCl, 0.01% Tween 20). Bead spin-down assays were all performed for 2 minutes at 5000 g. Beads were resuspended in 1 ml of activity buffer in a 1.5-ml snap cap tube. One microgram of Fc-FGFR1 to 4 was incubated with the beads for 1 hour on a bead rotator. Control samples were incubated with 2 μg of anti-FGF antibody instead of Fc-FGFR. Beads were then pelleted at 5000 g for 2 minutes and washed 5× with activity buffer. Beads were resuspended and incubated with different combinations of 500 ng of FGF, 1 μg of sKL, 1.6 United States Pharmacopeia (USP) units of heparin, or phosphate-buffered saline (PBS). Beads were incubated for 1 hour on a tube rotator, and beads were pelleted and washed as before. One hundred microliters of 1× Laemmli sample buffer (1610737, Bio-Rad) with 1.42 M 2-mercaptoethanol was added, and samples were boiled for 5 minutes. Samples were analyzed using SDS-PAGE and Western blotting.
(§2) The sample (20 μl) was loaded onto Mini-PROTEAN TGX Precast Gel 4-20% for experiments with <9 samples (4568094, Bio-Rad) or Criterion TGX Precast Gel 4-20% (5678094, Bio-Rad) for experiments with >9 samples. Gels were run in 1× Tris/Glycine/SDS buffer (1610732, Bio-Rad) at 150 V and stopped when the sample dye reached the end of the gel. Gels were removed and electrotransferred via a semi-dry cassette (1703940, Bio-Rad) in I× Tris/Glycine buffer (1610734, Bio-Rad) with 20% methanol. Gels were transferred onto polyvinylidene diflouride membranes (IPVH00010, Millipore) at 20 V for 1 hour. Membranes were then blocked in 5% dried milk with 0.5% Tween 20 diluted in Tris-buffered saline (TBST; pH 7.5) for 1 hour and probed with antibodies against specific antigens at 1:1000 in TBST with 5% dried milk. Blots were washed 3× for 5 minutes in TBST and probed with HRP-coupled secondary antibodies against specific species at 1:10,000 in TBST with 5% dried milk. Membranes were imaged on the SRX-101A X-ray film developer (Konica Minolta).

A further data set concerns the target T2, FGF23 binding to FGFR1c (Homo sapiens, UniProt P11362+Q9GZV9).
T2 construct: Fc-coupled FGFR ectodomains were immobilized on protein A/G beads; purchased R&D Systems 2604FG025/CF or 2629FG025/CF; 658FR050
Described as above. The settings on record: with heparin, or alone. How it is done:
as §1, §2

The next data set has as its target T3, FGF23 binding to FGFR2c (Homo sapiens, UniProt P21802).
T3 construct: Fc-coupled FGFR ectodomains were immobilized on protein A/G beads; purchased R&D Systems 2604FG025/CF or 2629FG025/CF; 712FR050
The description is as above. The settings on record: with heparin, or alone. As for the experimental part:
as §1, §2

For a further data set, the target named is T4, FGF23 binding to FGFR3c (Homo sapiens, UniProt P22607+Q9GZV9).
T4 construct: Fc-coupled FGFR ectodomains were immobilized on protein A/G beads; purchased R&D Systems 2604FG025/CF or 2629FG025/CF; 766FR050
Described as above. As to conditions: with heparin, or alone. As for the experimental part: as §1, §2

Data set [2] concerns intact hearts isolated from adult mice. Description: Isolated heart contractility. On the set-up: species or system mouse. As to conditions: FGF23 9 ng/ml with heparin 0.06 USP/ml. How it is done:
Isolated heart contractility was performed as described previously. 14,70,71 Briefly, 2- to 3-month-old male CD-1 mice were anesthetized using 3% isoflurane and hearts were carefully removed and placed into oxygenated Ringer's solution composed of 140 mM NaCl, 2.0 mM KCl, 2.5 mM CaCl2), 1.0 mM MgSO4, 1.5 mM K2HPO4, 10 mM N-2-hydroxyethylpiperazine-N-2-ethanesulfonic acid, and 10 mM glucose (pH 7.4). Atria were then removed, and the intact ventricular muscle was attached to small metallic clips hung vertically from a force transducer (ADInstruments) between bipolar platinum-stimulating electrodes and suspended in 25-ml glass tissue chambers (ADInstruments). Heart muscles were perfused with Ringer's solution continuously bubbled with 100% O2 at room temperature. Hearts were stretched to the length of maximum force development and paced at 1 Hz (5 ms pulse duration, 30-60 V; Grass Instruments SD9 Square Pulse Stimulator). After a stable baseline was obtained, hearts were treated with either vehicle or FGF23 (9 ng/ml) alone or in combination with heparin (0.06 USP/ml) while contractile force output was monitored for 30 minutes. Contractile data were recorded and analyzed with LabChart 8 software (ADInstruments). Waveform changes were analyzed for peak contraction force (in millinewtons) and maximum slope of force development and presented as fold change from baseline values.

T1 sequence (Q9GZV9 25-251): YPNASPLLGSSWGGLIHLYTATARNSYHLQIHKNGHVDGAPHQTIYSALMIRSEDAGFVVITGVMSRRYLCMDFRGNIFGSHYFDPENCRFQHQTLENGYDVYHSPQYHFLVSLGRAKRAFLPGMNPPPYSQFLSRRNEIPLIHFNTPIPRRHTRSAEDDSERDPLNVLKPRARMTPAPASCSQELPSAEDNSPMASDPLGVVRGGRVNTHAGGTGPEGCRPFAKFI
T1 sequence (P22455 22-369 limits assumed): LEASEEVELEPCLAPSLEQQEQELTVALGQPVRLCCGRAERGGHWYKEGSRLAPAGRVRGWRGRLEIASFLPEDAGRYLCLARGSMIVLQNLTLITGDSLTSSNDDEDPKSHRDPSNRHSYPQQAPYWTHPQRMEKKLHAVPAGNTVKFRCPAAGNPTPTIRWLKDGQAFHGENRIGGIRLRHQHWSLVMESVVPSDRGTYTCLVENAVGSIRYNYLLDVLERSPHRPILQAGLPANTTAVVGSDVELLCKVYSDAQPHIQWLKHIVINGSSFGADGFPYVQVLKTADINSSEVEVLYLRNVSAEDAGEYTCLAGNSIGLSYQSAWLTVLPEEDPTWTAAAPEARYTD
T3 sequence (P21802 22-377 limits assumed): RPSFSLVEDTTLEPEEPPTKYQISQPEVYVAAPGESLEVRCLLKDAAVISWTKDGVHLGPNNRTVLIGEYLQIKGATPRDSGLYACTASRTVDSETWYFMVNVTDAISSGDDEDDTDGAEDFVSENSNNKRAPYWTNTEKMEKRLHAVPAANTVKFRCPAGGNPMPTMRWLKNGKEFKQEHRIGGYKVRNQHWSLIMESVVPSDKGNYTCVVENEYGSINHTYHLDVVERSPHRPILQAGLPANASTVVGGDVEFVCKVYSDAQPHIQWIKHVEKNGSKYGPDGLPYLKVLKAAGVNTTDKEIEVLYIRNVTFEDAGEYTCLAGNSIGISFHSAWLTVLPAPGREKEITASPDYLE
T2 sequence (Q9GZV9 25-251): as the sequence (Q9GZV9 25-251) above
T2 sequence (P11362 22-376 limits assumed): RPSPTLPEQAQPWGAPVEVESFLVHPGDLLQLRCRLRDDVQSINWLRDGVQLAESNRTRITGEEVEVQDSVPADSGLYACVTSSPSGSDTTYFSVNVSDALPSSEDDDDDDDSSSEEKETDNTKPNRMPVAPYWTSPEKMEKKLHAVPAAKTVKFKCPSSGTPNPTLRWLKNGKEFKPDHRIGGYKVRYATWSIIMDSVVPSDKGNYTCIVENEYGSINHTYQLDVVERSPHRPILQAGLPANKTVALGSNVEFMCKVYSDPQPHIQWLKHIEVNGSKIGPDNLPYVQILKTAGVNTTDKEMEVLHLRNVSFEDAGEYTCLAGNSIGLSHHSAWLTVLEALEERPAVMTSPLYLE
T4 sequence (Q9GZV9 25-251): as the sequence (Q9GZV9 25-251) above
T4 sequence (P22607 23-375 limits assumed): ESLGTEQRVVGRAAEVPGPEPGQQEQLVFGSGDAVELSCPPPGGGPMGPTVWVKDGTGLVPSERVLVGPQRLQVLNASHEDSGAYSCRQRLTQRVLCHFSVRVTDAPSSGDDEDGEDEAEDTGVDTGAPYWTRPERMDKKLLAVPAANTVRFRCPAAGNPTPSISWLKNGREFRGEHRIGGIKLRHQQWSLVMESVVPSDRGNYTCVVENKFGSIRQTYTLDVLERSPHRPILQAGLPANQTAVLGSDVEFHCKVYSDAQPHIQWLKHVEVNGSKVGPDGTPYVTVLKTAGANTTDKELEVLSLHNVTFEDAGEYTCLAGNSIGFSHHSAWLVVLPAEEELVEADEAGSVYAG

With heparin [reference compound], in data set [1], the “effect on the heart” value is recorded as “no effect on the heart” and the “ratio of heart weight to body weight” value is recorded as “not significantly altered”. In addition, the “FGF23 co-precipitation with Fc-FGFR4” value on FGF23 binding to FGFR4 is “efficiently coprecipitates FGF23; also recorded: increased binding of FGF23 to FGFR4”. At FGF23 binding to FGFR1c, the “FGF23 co-precipitation with Fc-FGFR1c” value was “weaker FGF23 binding”. Moreover, the “FGF23 co-precipitation with Fc-FGFR2c” value on FGF23 binding to FGFR2c is recorded as “weaker FGF23 binding”. The “FGF23 co-precipitation with Fc-FGFR3c” value at FGF23 binding to FGFR3c was “weaker FGF23 binding”. The “FGF23-increased contraction force in the presence of heparin” value in data set [2] is “further increase; also recorded: further elevated”.
